Data reported in patent US20260207623A1, “USE OF ESTETROL IN HEPATICALLY IMPAIRED PATIENTS” (ESTETRA SRL, priority 2022, published 2026).

Experiment: Phase 1 pharmacokinetic study of a single oral dose of 20 mg E4 monohydrate in female subjects with normal hepatic function and mild, moderate or severe hepatic impairment (plasma, LC-MS/MS, non-compartmental analysis)
Assay type: in vivo, human
Conditions: for AUC0-24 h, GM / AUC0-24 h, Mean / AUC0-24 h, Median / AUCinf, GM / AUCinf, Mean / AUCinf, Median / AUClast, GM / AUClast, Mean / AUClast, Median / Cmax, GM / Cmax, Mean / Cmax, Median / T1/2, GM / T1/2, Mean / T1/2, Median / Tmax, Median / λz, GM / λz, Mean / λz, Median: single oral dose 20 mg E4 monohydrate, plasma
Experimental: This was a Phase 1, multi-centre, open-label, PK, and safety study of a single oral dose of 20 mg E4 monohydrate in female subjects with normal hepatic function (Group 1), mild hepatic impairment (Group 2), moderate hepatic impairment (Group 3), and severe hepatic impairment (Group 4), as defined using the Child-Pugh classification at Screening.
The study consisted of an eligibility Screening period (within 28 days prior to study drug administration), an Assessment Period with in-house period and outpatient visits (including a single oral dose of 20 mg E4 on Day 1), and a follow up visit. All subjects were confined to the study site from Day-1 (the day before dosing) until Day 4 and returned to the site every day from Day 5 to Day 9. Alternatively, the subjects could stay for a prolonged in-house period in agreement with the Investigator. The follow-up visit occurred on Day 14 (+2 days).
All subjects arrived at the study site in the morning of Day-1 in a fasted state (no food for at least 8 h, water was allowed) to have the scheduled assessments performed in order to confirm eligibility as outlined in the inclusion and exclusion criteria (Section 2.3.1 and Section 2.3.2, respectively). In the morning of Day 1 following an overnight fast, the subjects received oral dosing of 20 mg E4 monohydrate and remained at the site. Study-related assessments were performed at time points indicated in the Schedule of Assessments in Table 2.
Serial blood sampling for PK assessments started on Day 1 and proceeded until Day 9 according to the Pharmacokinetic Sampling Schedule presented in Table 3.
Each enrolled subject was to receive a single oral dose of 20 mg of E4 (estetrol) as monohydrate as a film-coated tablet.
Study drug was administered to subjects in the morning after an overnight fast of at least 8 h.
Calculation of non-compartmental PK parameters were done using WinNonlin™ Professional, Version 6.3 or higher.
The primary PK parameters to be analyzed for E4 in plasma: • Cmax=maximum observed plasma concentration • AUCinf=area under the concentration-time curve (AUC) from time zero extrapolated to infinity
The analysis of E4 and the metabolites E4-3-glucuronide and E4-16-glucuronide in plasma samples were performed at the Bioanalytical Laboratory of the CRO using a validated liquid chromatography-mass spectrometry/mass spectrometry method.
Individual and mean plasma concentrations at each sampling time point for E4 are presented by listings and descriptive summary statistics including means, geometric means (GMs), medians, ranges, standard deviations (SD) and coefficients of variation (CV). Individual, mean and/or median concentrations per hepatic function group were plotted versus time on semilogarithmic scales.
PK parameters were calculated by non-compartmental analysis. PK parameters were analysed using descriptive statistics and are presented by hepatic function group.
Analysis of variance (ANOVA) were used to compare primary PK parameters of E4 (Cmax and AUCinf) between subjects with hepatic impairment and subjects with normal hepatic function in an exploratory approach, using the log-transformed value of each PK parameter as dependent variable, and the hepatic impairment group (normal, mild, moderate, and severe) as a fixed classification factor. Geometric least squares means were used to calculate the ratios of primary PK parameters for each hepatic impairment group to those in the control group, along with 90% confidence intervals (CIs).
Additionally, the impact of age and BMI on the effect of hepatic impairment were evaluated using an ANOVA model similar as the ANOVA model described above, but with the interaction between each factor and the hepatic impairment group included as an additional factor.
The relationship between log-transformed PK parameters (Cmax and AUCinf) and continuous parameters (albumin, total bilirubin, and prothrombin time) used for the Child-Pugh score was explored by a linear regression approach. […]

AUC0-24 h, GM (Mild hepatic impairment): 1.01708 µg·h/mL
AUC0-24 h, Mean (Mild hepatic impairment): 1.03891 µg·h/mL
AUC0-24 h, Median (Mild hepatic impairment): 1.06193 µg·h/mL
AUCinf, GM (Mild hepatic impairment): 1.38013 µg·h/mL
AUCinf, Mean (Mild hepatic impairment): 1.38924 µg·h/mL
AUCinf, Median (Mild hepatic impairment): 1.35839 µg·h/mL
AUClast, GM (Mild hepatic impairment): 1.35015 µg·h/mL
AUClast, Mean (Mild hepatic impairment): 1.36427 µg·h/mL
AUClast, Median (Mild hepatic impairment): 1.32947 µg·h/mL
Cmax, GM (Mild hepatic impairment): 0.7111 µg/mL
Cmax, Mean (Mild hepatic impairment): 0.74575 µg/mL
Cmax, Median (Mild hepatic impairment): 0.7125 µg/mL
T1/2, GM (Mild hepatic impairment): 24.080 h
T1/2, Mean (Mild hepatic impairment): 24.634 h
T1/2, Median (Mild hepatic impairment): 25.699 h
Tmax, Median (Mild hepatic impairment): 0.490 h
λz, GM (Mild hepatic impairment): 0.0300 h⁻¹
λz, Mean (Mild hepatic impairment): 0.0295 h⁻¹
λz, Median (Mild hepatic impairment): 0.0270 h⁻¹
AUC0-24 h, GM (Moderate hepatic impairment): 1.24409 µg·h/mL
AUC0-24 h, Mean (Moderate hepatic impairment): 1.2934 µg·h/mL
AUC0-24 h, Median (Moderate hepatic impairment): 1.32309 µg·h/mL
AUCinf, GM (Moderate hepatic impairment): 1.45997 µg·h/mL
AUCinf, Mean (Moderate hepatic impairment): 1.5187 µg·h/mL
AUCinf, Median (Moderate hepatic impairment): 1.53485 µg·h/mL
AUClast, GM (Moderate hepatic impairment): 1.37556 µg·h/mL
AUClast, Mean (Moderate hepatic impairment): 1.43597 µg·h/mL
AUClast, Median (Moderate hepatic impairment): 1.45915 µg·h/mL
Cmax, GM (Moderate hepatic impairment): 0.73421 µg/mL
Cmax, Mean (Moderate hepatic impairment): 0.785625 µg/mL
Cmax, Median (Moderate hepatic impairment): 0.7595 µg/mL
T1/2, GM (Moderate hepatic impairment): 13.050 h
T1/2, Mean (Moderate hepatic impairment): 14.217 h
T1/2, Median (Moderate hepatic impairment): 12.381 h
Tmax, Median (Moderate hepatic impairment): 0.985 h
λz, GM (Moderate hepatic impairment): 0.0500 h⁻¹
λz, Mean (Moderate hepatic impairment): 0.0580 h⁻¹
λz, Median (Moderate hepatic impairment): 0.0560 h⁻¹
AUC0-24 h, GM (Normal hepatic function): 0.64344 µg·h/mL
AUC0-24 h, Mean (Normal hepatic function): 0.67636 µg·h/mL
AUC0-24 h, Median (Normal hepatic function): 0.61315 µg·h/mL
AUCinf, GM (Normal hepatic function): 0.89629 µg·h/mL
AUCinf, Mean (Normal hepatic function): 0.94646 µg·h/mL
AUCinf, Median (Normal hepatic function): 0.93227 µg·h/mL
AUClast, GM (Normal hepatic function): 0.86785 µg·h/mL
AUClast, Mean (Normal hepatic function): 0.91986 µg·h/mL
AUClast, Median (Normal hepatic function): 0.89459 µg·h/mL
Cmax, GM (Normal hepatic function): 0.35311 µg/mL
Cmax, Mean (Normal hepatic function): 0.41975 µg/mL
Cmax, Median (Normal hepatic function): 0.513 µg/mL
T1/2, GM (Normal hepatic function): 18.220 h
T1/2, Mean (Normal hepatic function): 19.245 h
T1/2, Median (Normal hepatic function): 17.755 h
Tmax, Median (Normal hepatic function): 0.500 h
λz, GM (Normal hepatic function): 0.0400 h⁻¹
λz, Mean (Normal hepatic function): 0.0402 h⁻¹
λz, Median (Normal hepatic function): 0.0391 h⁻¹
AUC0-24 h, GM (Severe hepatic impairment): 1.97774 µg·h/mL
AUC0-24 h, Mean (Severe hepatic impairment): 2.29522 µg·h/mL
AUC0-24 h, Median (Severe hepatic impairment): 1.92286 µg·h/mL
AUCinf, GM (Severe hepatic impairment): 2.08197 µg·h/mL
AUCinf, Mean (Severe hepatic impairment): 2.46786 µg·h/mL
AUCinf, Median (Severe hepatic impairment): 1.95993 µg·h/mL
AUClast, GM (Severe hepatic impairment): 2.05713 µg·h/mL
AUClast, Mean (Severe hepatic impairment): 2.4433 µg·h/mL
AUClast, Median (Severe hepatic impairment): 1.95171 µg·h/mL
Cmax, GM (Severe hepatic impairment): 0.90101 µg/mL
Cmax, Mean (Severe hepatic impairment): 0.952625 µg/mL
Cmax, Median (Severe hepatic impairment): 0.894 µg/mL
T1/2, GM (Severe hepatic impairment): 8.450 h
T1/2, Mean (Severe hepatic impairment): 10.103 h
T1/2, Median (Severe hepatic impairment): 8.542 h
Tmax, Median (Severe hepatic impairment): 0.500 h
λz, GM (Severe hepatic impairment): 0.0800 h⁻¹
λz, Mean (Severe hepatic impairment): 0.0995 h⁻¹
λz, Median (Severe hepatic impairment): 0.0882 h⁻¹
time to primary peak of GM plasma concentrations (all groups): ≤ 1 h
time post dose until which concentrations remained above LLOQ in at least half of the subjects (mild hepatic impairment): 96 h
time post dose until which concentrations remained above LLOQ in at least half of the subjects (moderate hepatic impairment): 72 h
time post dose until which concentrations remained above LLOQ in at least half of the subjects (normal hepatic function): 96 h
time post dose until which concentrations remained above LLOQ in at least half of the subjects (severe hepatic impairment): 48 h
Maximum value of AUC0-24 h, severe hepatic impairment compared with control group (severe vs control group): ~ 5 fold
Maximum value of AUCinf, severe hepatic impairment compared with control group (severe vs control group): ~ 4 fold
Maximum value of AUClast, severe hepatic impairment compared with control group (severe vs control group): ~ 4 fold
Maximum value of Cmax, severe hepatic impairment compared with control group (severe vs control group): ~ 2 fold
Compound: CC12CCC3c4ccc(O)cc4CCC3C1C(O)C(OC1OC(C(=O)O)C(O)C(O)C1O)C2O (stereo not shown) [E4-16-glucuronide]
